Assay results as given in ChEMBL document CHEMBL1201862, “PubChem BioAssay data set” (2004).
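Cultured in 96-well plates, cells were exposed to test compound for 48 hours across five concentrations. GI50 is the concentration that inhibits growth by half.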 Active and inactive are the calls of the source. No stated cut-off is given here; in the data, active = GI50 up to about 1.1 µM and inactive = higher.

Assays:
Experiment in all cases: NCI tumour cell line growth inhibition, 48 h
[1] = test system: CAKI-1
[2] = test system: M14
[3] = test system: ACHN
[4] = test system: HCT-15
[5] = test system: SK-OV-3
[6] = test system: NCI-H226
[7] = test system: SNB-75
[8] = test system: SF-539
[9] = test system: 786-0
[10] = test system: NCI-H460
[11] = test system: RPMI-8226
[12] = test system: Malme-3M
[13] = test system: MDA-MB-435
[14] = test system: EKVX
[15] = test system: KM12
[16] = test system: SK-MEL-2
[17] = test system: U-251
[18] = test system: SW-620
[19] = test system: SF-295
[20] = test system: HL-60
[21] = test system: NCI/ADR-RES
[22] = test system: MDA-N
[23] = test system: SK-MEL-5
[24] = test system: T47D
[25] = test system: RXF 393
[26] = test system: UO-31
[27] = test system: OVCAR-4
[28] = test system: PC-3
[29] = test system: Hs-578T
[30] = test system: OVCAR-5
[31] = test system: A549
[32] = test system: SF-268
[33] = test system: CCRF-CEM
[34] = test system: HT-29
[35] = test system: SNB-19
[36] = test system: NCI-H522
[37] = test system: COLO 205
[38] = test system: K562
[39] = test system: SK-MEL-28
[40] = test system: IGROV-1
[41] = test system: NCI-H23
[42] = test system: UACC-257
[43] = test system: DU-145
[44] = test system: OVCAR-8
[45] = test system: MCF7
[46] = test system: OVCAR-3
[47] = test system: SR
[48] = test system: TK-10
[49] = test system: BT-549
[50] = test system: MDA-MB-231
[51] = test system: SN12C
[52] = test system: HOP-92
[53] = test system: HCC 2998
[54] = test system: HOP-62
[55] = test system: HCT-116
[56] = test system: MOLT-4

Measured: GI50

Cc1ccc(-c2n[nH]c(=O)n2/N=C\c2ccccc2O)cc1
> 100 µM: [4]
inactive: [1] > 100 µM | [2] > 100 µM | [3] > 100 µM | [5] 81.3 µM | [6] > 100 µM | [7] > 100 µM | [8] > 100 µM | [9] > 100 µM | [10] > 100 µM | [11] > 100 µM | [12] > 100 µM | [13] > 100 µM | [14] > 100 µM | [15] > 100 µM | [16] > 100 µM | [17] > 100 µM | [18] > 100 µM | [19] > 100 µM | [20] > 100 µM | [21] > 100 µM | [22] > 100 µM | [23] > 100 µM | [24] 94 µM | [25] 57.8 µM | [26] > 100 µM | [27] > 100 µM | [28] > 100 µM | [29] 51.4 µM | [30] > 100 µM | [31] > 100 µM | [32] > 100 µM | [33] > 100 µM | [34] > 100 µM | [35] > 100 µM | [36] > 100 µM | [37] > 100 µM | [38] > 100 µM | [39] > 100 µM | [40] > 100 µM | [41] > 100 µM | [42] > 100 µM | [43] > 100 µM | [44] > 100 µM | [45] 55.6 µM | [46] > 100 µM | [47] > 100 µM | [48] > 100 µM | [49] > 100 µM | [50] 68.5 µM | [51] > 100 µM | [52] > 100 µM | [53] > 100 µM | [54] > 100 µM | [55] > 100 µM | [56] > 100 µM
